Tests used:
Format in all cases: in vivo
[1] = tested on: Japanese bulrush (Scirpus juncoides Roxb.); assay: Test Example 1: herbicidal effect by soil application to paddy field; conditions: paddy field soil application; active ingredient 1,000 g per 1 hectare; wettable powder added dropwise to water surface the day after sowing; examined on the 21st day after application
In short: (§1)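 Under greenhouse conditions, seeds sown on puddled paddy soil in 100 cm2 pots under 3 cm of standing water received the test compound; injury was assessed with a standard scoring scheme three weeks (day 21) after treatment.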

[2] = tested on: early watergrass (Echinochloa oryzicola Vasing); assay: as above; conditions: paddy field soil application; active ingredient 1,000 g per 1 hectare; wettable powder added dropwise to water surface the day after sowing; examined on the 21st day after application
In short: as §1

[3] = tested on: heartshape false pickerelweed (Monochoria vaginalis (Burm.f.) C.Presl); assay: as above; conditions: paddy field soil application; active ingredient 1,000 g per 1 hectare; wettable powder added dropwise to water surface the day after sowing; examined on the 21st day after application
In short: as §1

[4] = tested on: barnyardgrass (Echinochloa crus-galli (L.) P. Beauv. var. crus-galli); assay: Test Example 2: herbicidal effect by soil application to upland field; conditions: soil surface spray, upland field soil, 1,000 g active ingredient per hectare, 21st day after application
In short: (§2)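 Seeds were sown in field soil, covered, and the soil surface sprayed with a water-diluted wettable powder at 1,000 g active ingredient per hectare in 1,000 L/ha. Plants grew in a greenhouse, and herbicidal effect was rated against a standard scale 21 days after application.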

[5] = tested on: green foxtail (Setaria viridis (L.) P. Beauv.); assay: as above; conditions: soil surface spray, upland field soil, 1,000 g active ingredient per hectare, 21st day after application
In short: as §2

[6] = tested on: slender amaranth (Amaranthus viridis L.); assay: as above; conditions: soil surface spray, upland field soil, 1,000 g active ingredient per hectare, 21st day after application
In short: as §2

[7] = tested on: velvetleaf (Abutilon theophrasti medicus); assay: as above; conditions: soil surface spray, upland field soil, 1,000 g active ingredient per hectare, 21st day after application
In short: as §2

[8] = tested on: barnyardgrass (Echinochloa crus-galli (L.) P. Beauv. var. crus-galli); assay: Test Example 3: herbicidal effect by application to upland field (foliage treatment); conditions: foliage treatment, plants grown two weeks, 1,000 g active ingredient per hectare, 14th day after application
In short: (§3)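 Foliage treatment, greenhouse: 2-week-old plants in field soil; wettable powder in water sprayed over the top at 1,000 g a.i./ha (1,000 L/ha); rating on day 14 post-application.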

[9] = tested on: green foxtail (Setaria viridis (L.) P. Beauv.); assay: as above; conditions: foliage treatment, plants grown two weeks, 1,000 g active ingredient per hectare, 14th day after application
In short: as §3

[10] = tested on: slender amaranth (Amaranthus viridis L.); assay: as above; conditions: foliage treatment, plants grown two weeks, 1,000 g active ingredient per hectare, 14th day after application
In short: as §3

[11] = tested on: velvetleaf (Abutilon theophrasti medicus); assay: as above; conditions: foliage treatment, plants grown two weeks, 1,000 g active ingredient per hectare, 14th day after application
In short: as §3

Structure (SMILES): CC(C)(C)SCn1c(C(F)(F)F)ccc(C(=O)C2=C(O)CCCC2=O)c1=O [I-55]
- herbicidal effect, Scirpus juncoides Roxb. [1]: 5 (90% or more of herbicidal effect and crop phytotoxicity)
- herbicidal effect, Echinochloa oryzicola Vasing [2]: 5 (90% or more of herbicidal effect and crop phytotoxicity)
- herbicidal effect, Monochoria vaginalis (Burm. f.) C. Presl [3]: 5 (90% or more of herbicidal effect and crop phytotoxicity)
- herbicidal effect (index), Barnyardgrass [4]: 5 (90% or more of herbicidal effect and crop phytotoxicity)
- herbicidal effect (index), Green Foxtail [5]: 5 (90% or more of herbicidal effect and crop phytotoxicity)
- herbicidal effect (index), Slender Amaranth [6]: 5 (90% or more of herbicidal effect and crop phytotoxicity)
- herbicidal effect (index), Velvetleaf [7]: 5 (90% or more of herbicidal effect and crop phytotoxicity)
- herbicidal effect (index), Barnyardgrass [8]: 5 (90% or more of herbicidal effect and crop phytotoxicity)
- herbicidal effect (index), Green Foxtail [9]: 5 (90% or more of herbicidal effect and crop phytotoxicity)
- herbicidal effect (index), Slender Amaranth [10]: 5 (90% or more of herbicidal effect and crop phytotoxicity)
- herbicidal effect (index), Velvetleaf [11]: 5 (90% or more of herbicidal effect and crop phytotoxicity)
